Data as given in publication PMC4687871, “Delphinidin Inhibits Tumor Growth by Acting on VEGF Signalling in Endothelial Cells” (PLoS ONE, 2015).
“And” between values parts separate entries of the source, which are not always exact repeats. Identical values can stand only once.

Key:
[1] = tested on: HUVECs; assay: Endothelial cell proliferation (CellTiter 96 AQueous One); assay type: cell-based, human; conditions: for change of VEGF-induced proliferation: delphinidin 10 μg/ml + VEGF 10 ng/ml; for change of rate of basal proliferation: delphinidin 10 μg/ml, 1% human serum
Protocol: HUVECs (12,000 cells per well) were seeded on 24-multiwell plates, or in the case of VEGFR2 studies HUVECs (10000 cells per well) were seeded on 96-multiwell plates, in high serum culture medium and allowed to attach for 4–5 h. The 20% serum medium was then replaced by 1% HS medium. After 24 h incubation, medium was removed and replaced with 500 μl /well or 280 μl/well (for VEGFR2 studies) of 1% HS medium containing tested substances. Cells were pre-treated with or without a MEK1/2 MAP kinase inhibitor (U-0126, 10 μM) or a PI3 kinase inhibitor (LY-294002, 10 μM), then treated with or without 10 ng/ml of VEGF, in presence or in absence of 10 μg/ml delphinidin. Cells were allowed to proliferate for 3 days and HUVEC proliferation was determined at 24 h, 48 h, and 72 h by a colorimetric assay using the ‘CellTiter 96 AQeous One Solution Cell Proliferation Assay’ from Promega.
Cells were pre-treated with or without a VEGFR2 specific inhibitor (Ki8751, 10 nM), then treated with or without 10 ng /ml in presence or absence of 10 μg/ml delphinidin. Cells were allowed to proliferate for 2 days and HUVECs proliferation was determined at 24 h and 48 h by a colorimetric assay using the ‘CellTiter 96 AQeous One Solution Cell proliferation Assay’ from Promega.

[2] = tested on: B16-F10 melanoma cell xenograft; assay: Tumor growth induced by B16-F10 melanoma cell xenograft in mice; assay type: in vivo, mouse; conditions: 10 mg/kg i.p. once a week for 3 weeks; 30th day; vs vehicle-treated mice
Protocol: (§1) Two groups of 7 male C57BL/6N mice were used at 6 weeks old for tumor induction. The experimental protocol is illustrated on in Fig 1A. Before any treatments, mouse weights were registered on day 1 (D1). On the following day (D2), all mice were subcutaneously injected on the ventral side near each hindleg with B16-F10 melanoma cells (25x10^4 cells in 100 μl of 0.9% NaCl). The seventh day after tumor cell inoculation (D9), mice were treated by i.p. injection (100 μl/10 g mice) with either drug solvent (1% ethanol) or 10 mg delphinidin/kg. Delphinidin as well as solvent injections were repeated twice at 7-day intervals (D16 and D23). Then, seven days later (D30) after pentobarbital anesthesia, mice were sacrificed by cervical dislocation and tumors were dissected and weighted.

[3] = Mouse weight during xenograft experiment; assay type: in vivo; conditions: 10 mg/kg i.p. once a week for 3 weeks; over 30 days; vs non-treated mice
Protocol: as §1

[4] = tested on: B16-F10 melanoma cells; assay: Melanoma cell proliferation (CyQUANT); assay type: cell-based, mouse; conditions: 24, 48 and 72 h
Protocol: B16-F10 (5,000 cells per well) were seeded on 96-multiwell plates in completed medium and allowed to attach overnight. […] Proliferation was determined at 24 h, 48 h and 72 h by a fluorimetric assay using the CyQUANT Cell Proliferation Assay Kit (Molecular Probes, Eugene, OR). After growth medium removal, dye-binding solution was added into each microplate well and cells were incubated at 37°C for 45 minutes. The fluorescence levels were read on a fluorescent microplate reader (Synergy HT, Biotek, Winooski, VT) with filters for 485 nm excitation and 530 nm emission.

[5] = tested on: VEGFR2; assay: VEGFR2 expression and phosphorylation in HUVECs (Western blot); assay type: cell-based, human
Protocol: (§2) HUVECs and B16-F10 cells were treated with delphinidin (10 μg/ml) for 3 h and then incubated without or with VEGF (10 ng/ml) for 30 min for VEGFR2 phosphorylation or 24 h for VEGFR2 expression. Then, the cells were […], washed twice with PBS and trypsinized. The cells were lysed with RIPA buffer freshly in presence of protease inhibitor. Cells were allowed to lyse for 45 min on ice and centrifuged at 15000 g for 15 min at 4°C. The supernatant was […], and protein concentrations in the supernatant were determined by protein assay.
(§3) The proteins (30 μg) were separated on 10% sodium dodecyl sulfate-polyacrylamide gel electrophoresis (SDS-PAGE) and transferred on the nitrocellulose membranes. The membranes were incubated with anti-VEGFR2 or anti-pVEGFR2. The anti-β-actin (Sigma-Aldrich) was used to visualize protein gel loading. The membranes were then incubated with appropriate HRP-conjugated secondary antibody. The protein-antibody complexes were detected by chemiluminescence using the Western Blotting Luminol reagent kit (Santa Cruz Biotechnology®).

[6] = tested on: VEGFR2; assay: VEGFR2 expression and phosphorylation in B16-F10 cells (Western blot); assay type: cell-based, mouse
Protocol: as §2, §3

[7] = tested on: p38 MAP kinase; assay: p38 MAP kinase activation in HUVECs (Western blot); assay type: cell-based, human; conditions: delphinidin 10 μg/ml; 30 min
Protocol: (§4) HUVECs (9,000 cells per dish of 3.5 cm diameter) were seeded on petri dishes in high serum culture medium and allowed to attach for 4–5 h. The 20% serum medium was then replaced by 1% HS medium. […] Appropriate quantities of extracted proteins were resolved in a SDS-10% polyacrylamide gel and electro transferred onto PVDF membranes, as described previously. […] Immobilized antigens were detected by chemiluminescence using HRP-conjugates as secondary antibodies (1/60,000), an ECL assay kit and autoradiography films. Autoradiography signals were captured on a GeneGenius Bio Imaging System (Syngene) using the GeneSnap software and analyzed using the GeneTools software. […] Immobilized antigens were detected as described above.

[8] = tested on: CREB; assay: CREB phosphorylation in HUVECs (Western blot); assay type: cell-based, human; conditions: 30 min
Protocol: as §4

[9] = tested on: ATF1; assay: ATF1 phosphorylation in HUVECs (Western blot); assay type: cell-based, human; conditions: delphinidin 10 μg/ml, 30 min
Protocol: as §4

[10] = tested on: PDE1; assay: Purified PDE radio-enzymatic assay, PDE1; assay type: biochemical, bovine; conditions: substrate 1 μM cGMP, preliminarily reported in ref 26
Protocol: (§5) PDE1, PDE3, PDE4 and PDE5 were isolated by anion-exchange chromatography from bovine aortic smooth muscle cytosolic fraction as previously described. PDE2 was isolated from human platelets. Purified PDEs were stored as aliquots at -80°C until use. PDE activity was determined by a radio-enzymatic assay as described previously. The concentration of delphinidin that produced 50% inhibition (IC50) of substrate hydrolysis (determined at 1μM cAMP or cGMP) was calculated by non-linear regression analysis (GraphPad Prism, San Diego, CA) of concentration-response curves performed with 1–300 μM of delphinidin and included 6 different concentrations of delphinidin.

[11] = target: T1, PDE2 (Homo sapiens, UniProt O00408); assay: Purified PDE radio-enzymatic assay, PDE2; assay type: biochemical; conditions: substrate 1 μM cAMP, preliminarily reported in ref 26
T1 construct: PDE2 was isolated from human platelets; from tissue; host or cells: human platelets
T1 sequence (O00408 whole entry): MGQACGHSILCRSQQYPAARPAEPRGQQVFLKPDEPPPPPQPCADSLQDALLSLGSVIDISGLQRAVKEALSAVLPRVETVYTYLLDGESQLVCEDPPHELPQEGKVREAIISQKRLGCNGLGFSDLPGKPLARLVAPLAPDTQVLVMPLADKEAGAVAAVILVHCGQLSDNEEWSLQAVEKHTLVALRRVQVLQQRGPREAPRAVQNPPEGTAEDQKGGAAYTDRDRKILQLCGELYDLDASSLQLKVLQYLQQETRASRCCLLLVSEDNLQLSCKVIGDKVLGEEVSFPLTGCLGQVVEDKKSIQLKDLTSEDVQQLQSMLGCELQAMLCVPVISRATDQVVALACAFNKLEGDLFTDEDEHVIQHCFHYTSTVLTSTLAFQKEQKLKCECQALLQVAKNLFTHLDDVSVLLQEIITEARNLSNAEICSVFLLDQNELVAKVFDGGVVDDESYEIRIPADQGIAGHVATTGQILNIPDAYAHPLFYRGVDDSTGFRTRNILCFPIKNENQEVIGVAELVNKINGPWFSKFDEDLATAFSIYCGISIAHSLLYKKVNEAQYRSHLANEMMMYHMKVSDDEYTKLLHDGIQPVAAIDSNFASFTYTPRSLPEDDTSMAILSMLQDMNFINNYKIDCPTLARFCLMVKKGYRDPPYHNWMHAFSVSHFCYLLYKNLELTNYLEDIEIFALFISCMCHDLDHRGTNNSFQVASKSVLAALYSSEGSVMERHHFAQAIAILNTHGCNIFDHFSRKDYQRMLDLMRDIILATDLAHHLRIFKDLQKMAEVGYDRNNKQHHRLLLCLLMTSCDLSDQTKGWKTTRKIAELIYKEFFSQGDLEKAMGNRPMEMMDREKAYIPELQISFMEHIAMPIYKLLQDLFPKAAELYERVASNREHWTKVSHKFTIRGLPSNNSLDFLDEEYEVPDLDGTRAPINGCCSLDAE
Protocol: as §5

[12] = tested on: PDE4; assay: Purified PDE radio-enzymatic assay, PDE4; assay type: biochemical, bovine; conditions: substrate 1 μM cAMP; preliminarily reported in ref 26
Protocol: as §5

[13] = target: T2, PDE5 (Bos taurus, UniProt Q28156); assay: Purified PDE radio-enzymatic assay, PDE5; assay type: biochemical, bovine; conditions: substrate 1 μM cGMP; preliminarily reported in ref 26
T2 construct: isolated by anion-exchange chromatography from bovine aortic smooth muscle cytosolic fraction; from tissue; host or cells: bovine aortic smooth muscle, cytosolic fraction
Protocol: as §5

[14] = tested on: human NSCLC cells; design: method as in PMID 24124611; conditions: athymic nude mice subcutaneously implanted with human NSCLC cells; vs control mice; cited from earlier work

COc1cc2nccc(Oc3ccc(NC(=O)Nc4ccc(F)cc4F)c(F)c3)c2cc1OC [Ki8751, reference compound]
ability of VEGF to increase endothelial cell proliferation ([1]; Ki8751 10 nM + VEGF, 24 and 48 h): completely abolished

O=c1cc(N2CCOCC2)oc2c(-c3ccccc3)cccc12 [LY-294002, 2-(4-Morpholinyl)-8-phenyl-4H-1-benzopyran-4-one, reference compound]
effect on the inhibitory effect of delphinidin on basal proliferation ([1]; LY-294002 10 μM + delphinidin 10 μg/ml): completely blunted
increase of basal proliferation ([1]; LY-294002 10 μM, 72 h): not at 72 h

N#CC(=C(N)Sc1ccccc1N)C(C#N)=C(N)Sc1ccccc1N [U-0126, 1,4-diamino-2,3-dicyano-1,4-bis(2-aminophenylthio)-butadiene, reference compound]
proliferation rate (% of control) ([1]; U-0126 10 μM + VEGF 10 ng/ml, 72 h, n.s. vs control): 131%
effect on the inhibitory effect of delphinidin on basal proliferation ([1]; U-0126 10 μM + delphinidin 10 μg/ml): reversed to some extent closer to basal level

Oc1cc(O)c2cc(O)c(-c3cc(O)c(O)c(O)c3)[o+]c2c1 [delphinidin, Delphinidin]
decrease of tumor weight [2]: 83%
mouse weight as a percent of the starting weight [3]: unchanged
B16-F10 proliferation ([4]; delphinidin 10 μg/ml): did not inhibit
change of VEGF-induced proliferation ([1]; 24 h): -56%
change of VEGF-induced proliferation ([1]; 48 h): -85%
change of VEGF-induced proliferation ([1]; 72 h): -130%
change of rate of basal proliferation ([1]; 24 h): -52%
change of rate of basal proliferation ([1]; 48 h): -66%
change of rate of basal proliferation ([1]; 72 h): -70%
ability of VEGF in increasing VEGFR2 phosphorylation ([5]; delphinidin 10 μg/ml 3 h, then VEGF 10 ng/ml 30 min): completely prevented
ability of VEGF in increasing VEGFR2 expression ([5]; delphinidin 10 μg/ml 3 h, then VEGF 10 ng/ml 24 h): completely prevented
VEGFR2 expression ([5]; delphinidin 10 μg/ml alone): no effect
VEGFR2 phosphorylation ([5]; delphinidin 10 μg/ml alone): no effect
VEGF-dependent VEGFR2 phosphorylation ([6]; delphinidin 10 μg/ml 3 h, then VEGF 30 min): inhibited
basal p38 MAP kinase activation [7]: did not affect
increase of CREB phosphorylation induced by VEGF ([8]; delphinidin 10 μg/ml + VEGF 10 ng/ml): completely prevented
CREB phosphorylation ([8]; delphinidin 10 μg/ml alone): no significant effect
phosphorylation of ATF1 ([9]; after stimulation by VEGF 10 ng/ml): abolished
phosphorylation of ATF1 ([9]; control conditions): abolished
IC50 ([10]; +CaM/Ca): 15 ± 3 µM
IC50 PDE1 ([10]; +CaM/Ca): 5 ± 1 µg/mL
IC50 ([10]; no regulator): 33 ± 6 µM
IC50 PDE1 ([10]; no regulator): 11 ± 2 µg/mL
IC50 ([11]; +5μM cGMP): 19.8 µM and 18 µM
IC50 ([11]; no regulator): 115 µM and 103 µM
IC50 [12]: 109 ± 12 µM
IC50 PDE4 [12]: 37 ± 4 µg/mL
IC50 [13]: 49.5 µM and 44 µM
tumor growth [14]: significant inhibition

VEGF
B16-F10 melanoma cell proliferation ([4]; VEGF 10 ng/ml): not able increase
VEGFR2 phosphorylation ([5]; VEGF 10 ng/ml 30 min): increased
VEGFR2 expression ([5]; VEGF 10 ng/ml 24 h): increased
VEGFR2 expression ([6]; VEGF 10 ng/ml): did not modify
VEGFR2 phosphorylation ([6]; VEGF 10 ng/ml 30 min): increased
increase of CREB phosphorylation ([8]; VEGF 10 ng/ml): +484%
